Source: publication PMC7766124, “Improved Cell Selectivity of Pseudin-2 via Substitution in the Leucine-Zipper Motif: In Vitro and In Vivo Antifungal Activity” (Antibiotics, 2020)
Where two headings read alike, the source gives them in different places. No end group written: not given here.

Key:
[1] = tested on: A. flavus; type: cell-based, Aspergillus flavus (KCTC 6905); conditions: 36 h
Description: (§1) Aspergillus flavus (KCTC 6905), A. fumigatus (KCTC 6145), Fusarium moniliforme (KCTC 6149), F. oxysporum (KCTC 16909), C. albicans (KCTC 7270), C. krusei (CCARM 14017), C. parapsilosis (CCARM 14016), C. tropicalis (KCTC 7221), and T. beigelii (KCTC 7707) were obtained from the Korea Collection for Type Cultures (KCTC) and Culture Collection of Antimicrobial Resistant Microbes (CCARM). Mold and yeast fungi were pre-grown on potato dextrose (PD) and yeast extract peptone dextrose (YPD) agars, respectively.
(§2) Antifungal activity of peptides was performed by microtiter plate assays. Fungal conidia from four-day-old molds were collected using 0.08% Triton X-100 (v/v), and pre-cultivated yeast cells were adjusted to 2 × 10^4 spores/mL in 10 mM sodium phosphate buffer (SP, pH 7.2) or 10 mM 2-(N-morpholino)ethanesulfonic acid (MES) buffer (pH 5.5) supplemented with 20% culture medium, followed by addition to peptide solutions (0.25, 0.5, 1, 1.5, 2, 4, 6, 8, 12, 16, 32, 48, and 64 µM) in 96-well microtiter plates. After incubation for 36 h at 28 °C, the hyphal growth of conidia and the proliferation of yeast cells were observed under a light microscope. All assays were performed in triplicate. The MIC values were defined as the lowest concentration of samples that reduced fungal germination (for mold) or cell proliferation (for yeast) by more than 90% [34].

[2] = tested on: A. fumigatus; type: cell-based, A. fumigatus (KCTC 6145); conditions: 36 h
Description: as §1, §2

[3] = tested on: F. moniliforme; type: cell-based, Fusarium moniliforme (KCTC 6149); conditions: 36 h
Description: as §1, §2

[4] = tested on: F. oxysporum; type: cell-based, F. oxysporum (KCTC 16909); conditions: 36 h
Description: as §1, §2

[5] = tested on: C. albicans; type: cell-based, C. albicans (KCTC 7270); conditions: 36 h
Description: as §1, §2

[6] = tested on: C. krusei; type: cell-based, C. krusei (CCARM 14017); conditions: 36 h
Description: as §1, §2

[7] = tested on: C. parapsilosis; type: cell-based, C. parapsilosis (CCARM 14016); conditions: 36 h
Description: as §1, §2

[8] = tested on: C. tropicalis; type: cell-based, C. tropicalis (KCTC 7221); conditions: 36 h
Description: as §1, §2

[9] = tested on: T. beigelii; type: cell-based, T. beigelii (KCTC 7707); conditions: 36 h
Description: as §1, §2

[10] = Calcein leakage from fungus-mimic artificial vesicles; conditions: fungus-mimic PC/PE/PI/ergosterol vesicles, 20 μM lipid; peptide/lipid molar ratio 0.05; 100% = 0.03% Triton X-100; three independent experiments
Description: The permeability of peptides in calcein-entrapped artificial liposomes was assayed by measuring calcein leakage. The desired mixtures of lipids (PC/PE/PI/ergosterol, 5:4:1:2 and PC/CH/SM, 2:1:1, weight ratio) were dissolved in chloroform at 10 mg/mL, dried in a glass tube under nitrogen, and then lyophilized overnight to remove residual solvent. The dried lipid films were resuspended in 1 mL of dye solution (80 mM calcein, 10 mM HEPES buffer, pH 7.2) at 50 °C and vortexed, followed by freeze-thawing for nine cycles and extrusion with polycarbonate filters (0.2-μm pore-size) using an Avanti Mini-Extruder (Avanti Polar Lipids Inc., Alabaster, AL, USA). Free calcein was removed using PD-10 desalting columns (GE Healthcare Life Science, Seoul, Korea). Calcein-entrapped vesicles of 20 μM lipids were incubated with peptides at concentrations of […], 0.02, 0.05, and 0.1 molar ratio (peptide/lipid) and the fluorescence was assessed at 480 (Ex) and 520 (Em) nm using a microtiter SpectraMax M5 reader (Molecular Devices). Complete (100%) release was achieved by the addition of 0.03% Triton X-100 (v/v).

[11] = tested on: C. tropicalis; assay: C. tropicalis skin infection mouse model; type: in vivo, BALB/C female mice
Description: All animal experiments and procedures were performed with the approval of the Institutional Animal Care and Use Committee (IACUC) of Sunchon National University, Korea (SCNU IACUC-2019-10). BALB/C female mice (six weeks old) were obtained from Koatech Co. (Pyongtaek, Gyeonggido, Korea) and divided into three groups (n = 4): control, pseudin-2, and P2-LZ4 groups. The skin on the back of each mouse was shaved 1 h before infection, and the mice were anesthetized by inhalation of 5% (induction) and 2% (maintenance) isoflurane in pure oxygen. Mice were then subjected to subcutaneous infection with 100 µL C. tropicalis (10^7 cells/mL) by injection into the dorsum of each mouse. At 24 h after infection, 100 µL PBS, pseudin-2 (0.1 mg/mL), or P2-LZ4 (0.1 mg/mL) was injected into the same site. At four days after peptide injection, mice were euthanized by CO2 inhalation, and the infected skin tissues were excised, fixed in 4% paraformaldehyde, embedded in paraffin, stained with H&E, and observed by light microscopy.

[12] = tested on: Candida albicans, C. krusei, C. tropicalis, and Trichosporon beigelii; assay: Antifungal microtiter plate assay (MIC), range over pathogenic yeasts; type: cell-based; conditions: neutral pH; range over four yeasts
Description: as §2

GLNALKKVAQGIHEAAKLINNHVQ-NH2 [P2-LZ4]
MIC ([1]; pH 5.5): 16 µM
MIC ([1]; pH 7.2): 32 µM
MIC ([2]; pH 5.5): 16 µM
MIC ([2]; pH 7.2): 32 µM
MIC ([3]; pH 5.5): 32 (32) µM
MIC ([3]; pH 7.2): 32 (32) µM
MIC ([4]; pH 5.5): 16 µM
MIC ([4]; pH 7.2): 2 µM
MIC ([5]; pH 5.5): 8 µM
MIC ([5]; pH 7.2): 4 µM
MIC ([6]; pH 5.5): 8 µM
MIC ([6]; pH 7.2): 6 µM
MIC ([7]; pH 5.5): > 64 µM
MIC ([7]; pH 7.2): 48 µM
MIC ([8]; pH 5.5): 1 µM
MIC ([8]; pH 7.2): 2 µM
MIC ([9]; pH 5.5): 1 µM
MIC ([9]; pH 7.2): 1.5 µM
leakage of calcein [10]: 80.5%
histological evaluation of skin tissues (H&E) ([11]; 100 µL of 0.1 mg/mL peptide s.c. 24 h after infection, tissues taken four days after peptide injection): nearly identical to those of the PBS-treated mice
skin lesions (swelling and redness in the dorsal skin) ([11]; 100 µL of 0.1 mg/mL peptide s.c. 24 h after s.c. infection, monitored seven days, n = 4): no obvious skin lesions
MICs against pathogenic yeast cells [12]: 1.5 to 6 µM
